Assay: ROS production according to lysine concentration
Conditions: 10 µM B3 mixed with about 1.0 mM monomeric lysine, PBS pH 7.4, light of about 530 nm
Experimental: • i) 1.0 mM lysine (hereinafter, Lys) was mixed in PBS buffer solution (pH 7.4) and irradiated with light of about 530 nm. The fluorescence generated over time was measured using a Scinco FS-2, and results thereof are shown in FIG. 7A. • ii) The result of mixing 10 µM boron-containing compound B3 instead of the 1.0 mM lysine (Lys) is shown in FIG. 7B, iii) the result of mixing 10 µM boron-containing compound B3 and 0.1 mM lysine (Lys) instead of the 1.0 mM lysine (Lys) is shown in FIG. 7C, and iv) the result of mixing 10 µM boron-containing compound B3 and 1.0 mM lysine (Lys) instead of the 1.0 mM lysine (Lys) is shown in FIG. 7D.

O=Cc1cc2ccccc2cc1NCc1ccccc1B(O)O [B3]
reactive oxygen species generated: relatively large amount

— patent EP4670739A1, “ALBUMIN CONJUGATE, METHOD FOR PRODUCING SAME, AND COMPOSITION FOR TARGETING, DIAGNOSING, OR TREATING CANCER COMPRISING SAME” (Kytecbio Co., Ltd., priority 2023, dated 2024)
